Assay results from patent publication US11510980B2, “Brartemicin analogues” (VICTORIA LINK LTD, priority 2017, dated 2022).
“Also recorded” adds a separate entry of the source.

Key:
[1] = system: OT-II CD4+ T-cells co-cultured with GM-CSF BMDMs; test: BMDM / OT-II T-cell co-culture, OVA-specific IFN-γ and IL-17; format: cell-based, mice; settings: 48 hours
Method: Cytokine analysis: IL-1β, IFN-γ, IL-6, TNF-α (BD Biosciences), IL-17, and MIP-2 (R&D) levels were determined via sandwich ELISA according to the manufacturer's instructions.
BMDC-OT-II T-cell co-cuture: A mixture of OT-II cells (1×10^5 cells/100 μL) and BMDCs (1×10^4 cells/100 μL) were stimulated with plate coated glycolipd (0.1 nmol/well) or iPrOH only (20 μL/well) and increasing concentrations of OVA (0, 0.1, or 1 μM). After 48 or 72 hours, the supernatant was collected and ELISA was employed to determine the levels of IFN-γ and IL-17.
To evaluate the potential of C18dMeBrar (9a) as a Th1/Th17 adjuvant, GM-CSF BMDMs and T-cells from OVA-specific OT-II TCR Tg mice were co-cultured on plates coated with TDM (0.01 nmol/well), TDB (0.01 nmol/well), or C18dMeBrar (9a, 0.01 nmol/well). The cells were stimulated with OVA (0, 0.1, and 1 μM), and after 48 hours, the supernatant was collected. Levels of the key Th1 cytokine IFN-γ, which is indicative of an enhanced host defence response, and the Th17 cytokine IL-17 were measured via ELISA (FIG. 3). […] Antigen-specific secretion of IFN-γ however, was not enhanced by treatment with 9a.

[2] = molecular target: T1, hMincle+FcRγ (Homo sapiens, UniProt Q9ULY5); test: 2B4-NFAT-GFP reporter cells expressing hMincle+FcRγ; format: cell-based; settings: ligand-coated plates 0.01, 0.1 or 1 nmol/well, 18 hours
T1 construct: expressed in transfected cells; host or cells: 2B4-NFAT-GFP reporter cells
T1 sequence (Q9ULY5 1-219): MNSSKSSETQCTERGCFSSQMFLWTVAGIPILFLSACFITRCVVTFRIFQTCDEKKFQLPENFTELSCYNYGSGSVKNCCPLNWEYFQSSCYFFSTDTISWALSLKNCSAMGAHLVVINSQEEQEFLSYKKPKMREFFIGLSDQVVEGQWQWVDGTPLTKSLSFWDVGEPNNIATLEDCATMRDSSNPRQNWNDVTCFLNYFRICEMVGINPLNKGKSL
Method: Preparation of ligand-coated plates: Brartemicin analogues 9a-9i, TDM (Carbosynth, Sigma Aldrich), and TDB^14 were dissolved in CHCl3:MeOH (2:1, 1 mM), diluted in isopropanol ([…]) and added to 96-well plates (20 μL/well). The solvents were evaporated and the coated plates were used immediately.
2B4-NFAT-GFP reporter cells: 2B4-NFAT-GFP reporter cells expressing mMincle+FcRγ, hMincle+FcRγ, or FcRγ only have been previously described. […] The reporter cells were harvested, stained with propidium iodide, and analysed for NFAT-GFP expression using flow cytometry (FACS Calibur).
To determine whether the Mincle binding observed in Example 1 correlated with cellular activation, nuclear factor of activated T cells (NFAT)-green fluorescent protein (GFP) reporter cells expressing mMincle or hMincle coupled to FcRγ were stimulated using plates coated with TDM, TDB, brartemicin (9i), or analogues 9a-9h.
Activation of the reporter cells was measured through the production of GFP, which was monitored by flow cytometry (FIGS. 1b and 3c).
With the compounds 43a-h in hand, the ability of these analogues to bind and signal through Mincle was assessed (FIG. 5). Accordingly, NFAT-GFP reporter cells expressing mMincle+FcRγ, hMincle+FcRγ, or FcRγ-only were stimulated with the 2G-brartemicin analogues 43a-h, TDB, iPrOH, or the p-OC18H37 substituted analogue, 9f. Reporter cell activation was measured by the production of NFAT-GFP, which was analysed by flow cytometry.

[3] = system: C57BL/6 mice; test: Delayed-type hypersensitivity immunisation with OVA in oil-in-water emulsion; format: in vivo; settings: for Th1 immune response / adjuvant activity in vivo: oil-in-water emulsion
Method: Delayed-type hypersensitivity: Mice were sensitised by subcutaneous injection with oil-in-water emulsions (mineral oil/Tween-80/PBS, 9:1:90, v/v/v) containing OVA only (200 μg), OVA+TDB (OVA=200 μg, TDB=0.3 μmol), OVA+9a (OVA=200 μg, 9a=0.3 μmol) or no OVA. After seven days, the mice were challenged with OVA (100 μg/footpad) and after a further seven days, the mice were sacrificed and their spleens harvested. For in vitro restimulation, splenocytes were restimulated with OVA and analysed for spenocyte number (measured at 450 nm after 3 hours, Cell Count Reagent SF, Nacalai Tesque Inc.), IFN-γ production, and IL-17 production. Footpad swelling was measured using a venier caliper pre-challenge, 24 hours post-challenge, and 48 hours post-challenge. Sera were collected from each mouse on days 0, 7, and 14 and analysed for OVA-specific antibody titers by ELISA using HRP coupled goat anti-mouse IgG (GE Health-care), IgG1, IgG2b, IgG2c, and IgG3 (SouthernBiotec). EC50 were defined by plotting the absorbance at 450 nm against log of serum concentration. Antibody titration curves were plotted using GraphPad Prism7 (GraphPad Software).
Compound 9a was then evaluated in vivo to confirm its capacity to induce a Th1 antigen-specific response using a delayed-type hypersensitivity immunisation protocol. To this end, four groups of C57BL/6 mice were immunised by subcutaneous injection with oil-in-water emulsions containing either OVA only, OVA+C18dMeBrar (9a), OVA+TDB, or no OVA. After seven days the mice were challenged with OVA (100 μg per footpad) and after a further seven days, the splenocytes were isolated and restimulated with OVA at three concentrations (10, 30, or 100 μg/mL). The immune response was measured by determining footpad swelling, production of IFN-γ and IL-17 (FIG. 7b), T cell proliferation (FIG. 4a), and antibody titres (FIG. 4c). […] Accordingly, the ability of C18dMeBrar (9a) to lead to an enhanced Th1 immune response was even more striking. This overall immune profile was also reflected in the antibody production by immunised mice. […] A high IgG2c:IgG1 ratio is commonly associated with Th1 responses and a lower ratio is associated with Th2 responses. The production of IgG2c in mice immunised with C18dMeBrar increased three-fold as compared to OVA alone, providing evidence that C18dMeBrar induces a Th1-biased immune response.

[4] = 0.01 nmol/well, OVA 0, 0.1 and 1 μM, ELISA
[5] = s.c. OVA 200 μg + adjuvant 0.3 μmol

## 6,6′-Di-O-(2-hydroxy-4-octabenzyloxybenzoyl)-α,α′-D-trehalose [9a]
[1]; [4]
  OVA-specific production of IL-17: significantly augmented
  antigen-specific secretion of IFN-γ: not enhanced
[1]; 0.1 nmol/well, OVA323-339 peptide 0, 0.1 and 1 μM
  adjuvant activity in vitro: displays adjuvant activity in vitro
[2]
  activation of hMincle NFAT-GFP reporter cells (GFP by flow cytometry): strongly activated; also recorded: best able to activate hMincle
[3]; all concentrations of OVA re-stimulation
  cell count compared to TDB: significant increase in cell count
[3]; [5]
  number of splenocytes as compared to OVA alone: significantly larger number of splenocytes
  Th1 immune response / adjuvant activity in vivo: potent adjuvant activity in vivo; also recorded: strong Th1 recall response; also recorded: polarised immune response with a distinct Th1 profile
[3]; s.c. OVA 200 μg + adjuvant 0.3 μmol, listed as C18dMeBrar
  Th1 immune response / adjuvant activity in vivo: stronger Th1 immune response
[3]; s.c. OVA 200 μg + adjuvant 0.3 μmol, OVA challenge 100 μg/footpad
  footpad swelling: neither 9a nor TDB induced any
[3]; s.c. OVA 200 μg + adjuvant 0.3 μmol, restimulation 10, 30 or 100 μg/mL OVA
  IL-17 production by splenocytes restimulated with OVA: neither 9a nor TDB induced any
[3]; s.c. OVA 200 μg + adjuvant 0.3 μmol, splenocytes restimulated with 100 μg/mL OVA
  antigen specific IFN-γ production, re-stimulating with 100 μg/mL of antigen: significantly enhanced cytokine production
[3]; s.c. OVA 200 μg + adjuvant 0.3 μmol, splenocytes restimulated with 10, 30 or 100 μg/mL OVA
  antigen specific IFN-γ production, all concentrations of OVA: trend towards increased
[3]; serum, ELISA
  IgG1 antibody production: showed increases
  IgG2b antibody production: showed increases
  IgG2c antibody production: showed increases
  production of IgG2c as compared to OVA alone: three-fold
  production of OVA-specific IgG antibodies: elevated the production of IgG antibodies
[3]; serum, ELISA, listed as C18dMeBrar
  production of OVA-specific IgG antibodies: only significant for C18dMeBrar
